This is an account of results in ChEMBL document CHEMBL5143617 (Eur J Med Chem, 2022).

In brackets after ≈: the same amount, converted by molar mass. Activity calls are given as the source filed them. The rule behind the calls is not given here.

The target of data set [1] is T1, 5-hydroxytryptamine receptor 1A (Homo sapiens, UniProt P08908).
T1 sequence (P08908 whole entry): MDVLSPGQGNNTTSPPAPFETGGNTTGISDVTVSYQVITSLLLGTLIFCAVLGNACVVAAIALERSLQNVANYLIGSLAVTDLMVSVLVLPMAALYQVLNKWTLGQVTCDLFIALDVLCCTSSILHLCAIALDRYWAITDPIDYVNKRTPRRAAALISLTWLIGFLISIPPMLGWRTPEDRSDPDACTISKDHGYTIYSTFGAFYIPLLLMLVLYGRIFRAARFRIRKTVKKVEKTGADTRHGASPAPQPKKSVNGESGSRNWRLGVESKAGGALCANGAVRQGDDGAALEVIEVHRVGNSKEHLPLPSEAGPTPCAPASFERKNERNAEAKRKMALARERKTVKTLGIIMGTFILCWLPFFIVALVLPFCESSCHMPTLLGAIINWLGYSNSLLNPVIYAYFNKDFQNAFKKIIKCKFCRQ
Nature of the data set: Displacement of [3H]-[…] from human 5-HT1A receptor expressed in CHO-K1 cells membrane by scintillation counter analysis. It counts as cell membranes. On the technique in general: Displacement assays read how much labelled ligand stays bound in the presence of the test substance.

The target of data set [2] is 5-hydroxytryptamine receptor 7 (Homo sapiens, UniProt P34969). The experiment in a line: Displacement of [3H]-5-CT from human 5-HT7 receptor expressed in CHO-K1 cells membrane by scintillation counter analysis. It counts as cell membranes.
Data set [3] addresses T2, cAMP and cAMP-inhibited cGMP 3',5'-cyclic phosphodiesterase 10A (Homo sapiens, UniProt Q9Y233). The experiment in a line: Inhibition of PDE10A (unknown origin) at 10 uM preincubated for 20 mins followed by substrate addition and measured after 1 hr by PEDlight AMP detection reagent based luminescence assay relative to control. The note with it: time 80.0 min.
Data set [4] deals with T2, cAMP and cAMP-inhibited cGMP 3',5'-cyclic phosphodiesterase 10A. Nature of the data set: Inhibition of PDE10A (unknown origin) preincubated for 20 mins followed by substrate addition and measured after 1 hr by PEDlight AMP detection reagent based luminescence assay.
In data set [5] the test system is Mus musculus. Nature of the data set: Antidepressant activity in Swiss albino mouse assessed as reduction in immobility time at 5 mg/kg, ip measured for last 4 mins of 6 mins test by forced swim test. It counts as functional, organism-based.
The test system of data set [6] is Mus musculus. The experiment in a line: Anxiolytic-like activity in Swiss albino mouse at 2.5 mg/kg, ip by four plate test. Type of data set: functional, organism-based.
The subject of data set [7] is Rattus norvegicus. The experiment in a line: Pro-cognitive activity in MK-801-induced memory impaired Wistar rat assessed as recognition of novel location by measuring discrimination index at 1 mg/kg, ip preincubated for 30 mins followed by MK-801 addition for 30 mins prior to T1 phase by novel object location test. Type of data set: functional, organism-based. The note with it: time 60.0 min.

Data set [8] in a line: Permeability of the compound across apical to basolateral side in human Caco-2 cells at pH 6.5. It counts as ADME, cell-based. The note with it: Caco-2, pH 6.5, read-out: permeability. (In general: Caco-2 monolayers are a common model of the intestinal barrier.)
Data set [9] can be described thus: Permeability of the compound across apical to basolateral side in human Caco-2 cells at pH 7.4. It counts as ADME, cell-based. The note with it: Caco-2, pH 7.4, read-out: permeability.
Data set [10] is described as follows: Aqueous solubility of compound in PBS buffer at pH 7.4 by UV absorbance based analysis. Type of data set: physicochemical.
For data set [11], the system named is Mus musculus. The experiment in a line: Antidepressant activity in Swiss albino mouse assessed as reduction in immobility time at 2.5 mg/kg, ip measured for last 4 mins of 6 mins test by forced swim test. Type of data set: functional. Set-up: scale not given: the % may be the effect or the level left. The note with it: 0.1 h.
In data set [12] the test system is Mus musculus. Nature of the data set: Anxiolytic-like activity in Swiss albino mouse at 1.25 to 2.5 mg/kg, ip by four plate test. Type of data set: functional, organism-based. The note with it: dose 1.25-2.5 mg/kg.
For data set [13], the system named is Rattus norvegicus. The experiment in a line: Pro-cognitive activity in MK-801-induced memory impaired Wistar rat assessed as recognition of novel location by measuring discrimination index at 0.3 to 3 mg/kg, ip preincubated for 30 mins followed by MK-801 addition for 30 mins prior to T1 phase by novel object location test. It counts as functional, organism-based. The note with it: dose 0.3-3 mg/kg, time 60.0 min.

For orientation: Ki means a measure of affinity in units of concentration, obtained from inhibition or displacement. As a reminder, the inhibition is the percentage by which the read-out fell short of the control. Turning to `O=c1[nH]c2cccc(N3CCN(Cc4cnc5ccccc5n4)CC3)c2[nH]1`, the Ki in data set [1] was 83.2 nM; in [2], over 1000 nM. In data set [3], this compound registered an inhibition of 9%.

Broadly, the IC50 is the concentration needed to halve the response being measured. Turning to `O=c1[nH]c2cccc(N3CCN(Cc4nc5ccccc5[nH]4)CC3)c2[nH]1`, the half-maximal inhibitory concentration (IC50) in data set [4] is 4070 nM. The Ki in data set [1] and in [2] was over 1000 nM in each case. Moreover, the inhibition in [3] came out at 23%.

Take `COc1cc2ncnc(N3CCN(Cc4nc5ccccc5[nH]4)CC3)c2cc1OC`: the Ki in data set [1] and in data set [2] was over 1000 nM each time. This compound also showed an inhibition in data set [3] of 3%.

On to `COc1cc2ncnc(N3CCC(CN4CCN(c5ccccc5)CC4)C3)c2cc1OC` (stereo not drawn), for which the values for the inhibitory constant (Ki) in data set [1] and in [2] were 32.4 nM and 251 nM, respectively. Also, the inhibition in [3] was 3%. The outcome in data set [5], in data set [6] and in [7] was Active.

`COc1cc2ncnc(N3CCC(CN4CCN(c5ccc(O)cc5)CC4)C3)c2cc1OC` (stereo not drawn): the inhibition constant (Ki) in data set [1] was 468 nM; in data set [2], over 1000 nM. The compound also came in with an inhibition in data set [3] of 18%.

On to `c1cc(N2CCN(Cc3cnc4ccccc4n3)CC2)c2[nH]ncc2c1`, for which the inhibition constant Ki in data set [1] is 87.1 nM; in data set [2], over 1000 nM.

In the case of `c1cc(N2CCN(Cc3nc4ccccc4[nH]3)CC2)c2[nH]ncc2c1`, the Ki in data set [1] and in data set [2] was over 1000 nM throughout.

In data set [2], `CSc1ccc2c(c1)CC(N1CCN(C)CC1)c1ccccc1S2` (stereo not drawn) showed an inhibition constant (Ki) of 1.12 nM.

Turning to `COc1cc2ncnc(N3CCN(Cc4cnc5ccccc5n4)CC3)c2cc1OC`, in data set [4], the IC50 is 170000 nM. The Ki in data set [1] and in [2] was over 1000 nM throughout. The inhibition in data set [3] amounted to 29%.

Take `O=c1[nH]c2cccc(N3CCN(Cc4ccc5ccccc5n4)CC3)c2[nH]1`: the inhibition constant (Ki) in data set [1] is 245 nM; in data set [2] it was 417 nM. Also, the inhibition in data set [3] came out at 17%.

On to `COc1cc2ncnc(N3CCC(CN4CCN(c5ccccn5)CC4)C3)c2cc1OC` (stereo not drawn), for which the inhibition constant Ki in data set [1] was 8.13 nM; in data set [2], 282 nM. Further, the inhibition in [3] was 11%.

As to `CNC(=C[N+](=O)[O-])NCCSCc1ccc(CN(C)C)o1` [RANITIDINE], the values for the Papp A→B in [8] and in [9] were 0.3 ×10⁻⁶ cm/s and 0.9 ×10⁻⁶ cm/s, respectively.

On to `COc1cc2ncnc(N3CCC(CN4CCN(c5cccc(C(F)(F)F)c5)CC4)C3)c2cc1OC` (stereo not drawn), for which the Ki in data set [1] is 20.9 nM; in data set [2] it was 229 nM. This compound also yielded an inhibition in [3] of 3%. Further, in data set [6], the result was Active.

For `COc1cc2ncnc(N3CCC(CN4CCN(c5ncccn5)CC4)C3)c2cc1OC` (stereo not drawn), the inhibitory constant (Ki) is 251 nM in data set [1] and over 1000 nM in data set [2]. Moreover, in data set [3], the inhibition amounted to 11%.

For the compound `COc1cc2ncnc(N3CCC(CN4CCN(c5cccc(Cl)c5)CC4)C3)c2cc1OC` (stereo not drawn), the results for the Ki in data set [1] and in data set [2] were 30.2 nM and 372 nM, respectively. In [3], the inhibition was determined as 4%.

Regarding `COc1cc2ncnc(N3CCN(Cc4ccc5ccccc5n4)CC3)c2cc1OC`, the Ki in [1] and in [2] was over 1000 nM each time. Also, the inhibition in data set [3] was 8%.

Turning to `COc1cc2ncnc(N3CCC(CN4CCN(c5ccccc5OC)CC4)C3)c2cc1OC` (stereo not drawn), the Ki in data set [1] is 1.62 nM; in [2], 56.2 nM. Besides, in data set [3], the inhibition is 16%.

Take `COc1cc2ncnc(N3CCC(CN4CCN(c5ccccc5O)CC4)C3)c2cc1OC` (stereo not drawn): the half-inhibitory concentration (IC50) in data set [4] is 6030 nM. In data set [2], this compound had a Ki of 661 nM.

For the compound `COc1cc2ncnc(N3CCC(CN4CCN(c5cccc(Cl)c5Cl)CC4)C3)c2cc1OC` (stereo not drawn), the values for the Ki in data set [1] and in data set [2] were 10.7 nM and 347 nM, respectively. This compound also yielded an inhibition in data set [3] of 6%.

In the case of `c1cc(N2CCN(c3cccc4cn[nH]c34)CC2)c2ncncc2c1`, the Ki in [1] and in data set [2] was over 1000 nM throughout. The same compound registered an inhibition in [3] of 3%.

`COc1cc2ncnc(N3CCC(CN4CCc5ccccc5C4)C3)c2cc1OC` (stereo not drawn): the IC50 in data set [4] is 105000 nM. Besides, the Ki was over 1000 nM in data set [1] and 603 nM in data set [2]. The compound also displayed an inhibition in data set [3] of 40%.

For orientation: solubility means how much of the substance goes into solution per volume. Compound `COCCc1ccc(OCC(O)CNC(C)C)cc1` (stereo not drawn) [METOPROLOL] yielded a solubility in [10] of 200 µM (≈ 53.5 µg/mL).

Regarding `COc1cc2ncnc(N3CCC(CN4CCN(c5ccc(Cl)c(Cl)c5)CC4)C3)c2cc1OC` (stereo not drawn), the Ki was 245 nM in data set [1] and 355 nM in data set [2]. The compound further displayed an inhibition in [3] of 2%.

For `COc1cc2ncnc(N3CC[C@@H](Oc4cnc5ccccc5n4)C3)c2cc1OC`, the Activity in [11] is given as 30%. For the same compound, the outcome in data set [12] and in data set [13] was Active.

With `c1ccc2nc(CN3CCN(c4cccc5cn[nH]c45)CC3)ccc2c1`, the Ki in data set [1] and in [2] was over 1000 nM each time.
